Measured values as given in patent US20160310524A1, “COMPOSITIONS AND METHODS FOR TREATING DYSREGULATED SYSTEMS” (priority 2013, published 2016).

Key:
Assay type in all cases: in vivo
[1] = system: patients where involvement with glutamate is suspected; experiment: Low dose (Trojan horse) treatment of patients where involvement with glutamate is suspected
Description: For example one of the stimulating systems in the body is the glutamate receptor mechanism. Some of the biggest challenges in neuropsychiatric pharmacology is breaking through the defenses of these “buffered” systems like NMDA. The “Trojan horses” can enter into the receptor mechanism and change it without disturbing the situation. This explains why certain diseases that are not well treated, such as autism, have responded to any number of treatments but none of them consistently. If the balance between more autistic and less autistic behavior is very much leaning toward improved socialization, then perhaps any “Trojan horse” that can slip past the “fortress” of the glutamate receptors that are refusing to participate may add enough positive to affect socialization and the child has a miraculous response to the minute dose of medicine.
Examples: low dose Abilify and mecamylamine have been successful in treating patients where involvement with glutamate is suspected. Indeed we have few disorders that are known to be caused by glutamate despite the large role it plays in brain function. One medication that has been used for several years is Mematine, which is supposed to help memory in patients with Alzheimer's. […] Another example is the destructive flashbacks seen when individuals have taken PCP. […]

[2] = Effect of memantine on socialization in people; details: in many people
[3] = system: subject with dissociation disorder; experiment: Example protocol for memantine (Namenda) in dissociation disorder: sample chart for an example patient
Protocol: Example Protocol for Memantine (Namenda®)
Day 1: Give Namenda ½ of a 5 mg tablet in the morning.
Day 2: If the patient has absolutely no positive change in their behavior in the form of genuine social interactions, give another ½ of a 5 mg tablet in the morning.
Day 3: No matter what happened, give no Namenda on Day 3.
If there has been no improvement, give ½ of a 5 mg tablet in the morning.
Day 5: If there has been no improvement since Day 1, give ½ of a 5 mg tablet in the morning.
Day 6: No matter what happens, give no Namenda on Day 6.
Day 7: If there has been only minimal improvement after a total of 7.5 mg of Namenda, give ½ of a 5 mg Namenda. If there has been no improvement after a total of 10 mg of Namenda, give ½ of a 5 mg Namenda. Otherwise, give no Namenda on Day 7. […]
Here is a sample chart for an example patient following the steps and a plan for week 2. […]
Side effects of Namenda: how to know if the dose is too high. The negative social effects of Namenda can be described as disinhibitory. This mean that the person's normal understanding of personal boundaries with others is lost—i.e., the patient loses their inhibition like someone who is intoxicated. They may be excessively aggressive both verbally and physically about incidental matters. They may become intrusive into other people's business. They may become flirtatious or aggressive. If a person has any of these behaviors it most likely means that the Namenda dose is getting too high.

[4] = system: seizure patient with rage behavior; experiment: Case number 2: seizure patient with rage behavior
Protocol: The patient had been on a large dose thioridazine (400 mg/day).
One drives fear and involves beta-receptors. The other drives aggression and involves alpha-receptors.

[5] = system: schizophrenic acute psychosis patients and patients having autism spectrum social disorder; experiment: Mecamylamine in patients with schizophrenic acute psychosis or autism spectrum social disorder: verbal communication
Protocol: In some embodiments, the effective dose of mecamylamine is 0.025 mg/kg to about 0.125 mg/kg twice a week. In some cases, the effective dose of mecamylamine in schizophrenic acute psychosis patients and patients having autism spectrum social disorder results in improved verbal communication from 50 to 150%. In some embodiments, one dose may have an effect of improved verbal communication up to two months.

[6] = Day 1, dose given ½ of a 5 mg Namenda
[7] = Day 2, dose given ½ of a 5 mg Namenda
[8] = Day 5, dose given ½ of a 5 mg Namenda

O=C1CCc2ccc(OCCCCN3CCN(c4cccc(Cl)c4Cl)CC3)cc2N1 [Abilify, aripiprazole]
success of treatment [1]: successful

CC12CC3CC(C)(C1)CC(N)(C3)C2 [Namenda, memantine]
effect on socialization [2]: increase their socialization
effect on socialization ([2]; listed as Mematine): increasing their socialization
Improvement [3, 6]: None
Side Effects or Disinhibition [3, 6]: None
Improvement [3, 7]: None
Side Effects or Disinhibition [3, 7]: None
Degree or Detail of Improvement ([3]; Day 3, no dose given): Spoke normally
Improvement ([3]; Day 3, no dose given): Slight
Side Effects or Disinhibition ([3]; Day 3, no dose given): None
Degree or Detail of Improvement ([3]; Day 4, no dose given): Same as Day 3
Improvement ([3]; Day 4, no dose given): Slight
Side Effects or Disinhibition ([3]; Day 4, no dose given): None
Degree or Detail of Improvement [3, 8]: Ate their meal
Improvement [3, 8]: Good
Side Effects or Disinhibition [3, 8]: None
Degree or Detail of Improvement ([3]; Day 6, no dose given): Same as Day 4
Improvement ([3]; Day 6, no dose given): Continues Good
Side Effects or Disinhibition ([3]; Day 6, no dose given): None
Improvement ([3]; Day 7, no dose given): Same
Side Effects or Disinhibition ([3]; Day 7, no dose given): None

COc1cc2nc(N3CCN(C(=O)C4COc5ccccc5O4)CC3)nc(N)c2cc1OC (stereo not drawn) [doxazosin]
effect on severe psychotic symptoms ([4]; doxazosin added, patient on propranolol and haloperidol): stopped the severe psychotic symptoms

CNC1(C)C2CCC(C2)C1(C)C (stereo not drawn) [mecamylamine]
success of treatment [1]: successful
duration of effect of improved verbal communication ([5]; one dose): up to two
duration of effect of improved verbal communication ([5]; one weekly protocol): up to 4 months

CC(C)NCC(O)COc1cccc2ccccc12 (stereo not drawn) [propranolol]
character of rage when it occurred ([4]; on propranolol, compared with before beta blocker treatment): wilder and more psychotic
frequency of rages ([4]; on the beta blocker propranolol): less frequent rages
